Data on three molecules can be found in publication PMC7143538, “New Thiodiketopiperazine and 3,4-Dihydroisocoumarin Derivatives from the Marine-Derived Fungus Aspergillus terreus” (Marine Drugs, 2020).

For the assay, the target named is T1, protein tyrosine phosphatase 1 B (PTP1B) (Homo sapiens, UniProt P18031).
T1 construct: gene PTPN1
T1 sequence (P18031 1-435): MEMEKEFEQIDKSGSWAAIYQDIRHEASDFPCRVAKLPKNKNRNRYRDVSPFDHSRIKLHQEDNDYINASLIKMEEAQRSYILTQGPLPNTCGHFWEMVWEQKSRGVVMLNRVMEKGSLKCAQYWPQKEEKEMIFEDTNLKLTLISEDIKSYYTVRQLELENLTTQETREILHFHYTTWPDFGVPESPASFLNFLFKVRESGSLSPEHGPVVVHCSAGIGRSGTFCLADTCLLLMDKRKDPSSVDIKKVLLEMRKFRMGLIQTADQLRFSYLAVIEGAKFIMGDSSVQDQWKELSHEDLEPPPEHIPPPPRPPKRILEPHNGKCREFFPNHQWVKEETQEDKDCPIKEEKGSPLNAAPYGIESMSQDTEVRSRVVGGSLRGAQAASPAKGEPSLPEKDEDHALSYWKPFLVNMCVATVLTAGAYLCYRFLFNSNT
The assay can be described thus: pNPP phosphatase assay, human recombinant PTP1B, absorbance at […] nm. In kind it is biochemical.
Consider `CS[C@@]1(Cc2ccccc2)NC(=O)[C@@](Cc2ccccc2O)(SC)NC1=O` [compound 3, emethacin C], for which the IC50 is 12.3 µM.

Regarding `CS[C@@]12CC3=CC=C[C@H](OC(C)=O)[C@H]3N1C(=O)[C@]1(SC)CC3=COC=C[C@H](OC(C)=O)[C@H]3N1C2=O` [compound 5, bisdethiobis(methylsulfanyl)acetylapoaranotin], the IC50 was determined as 25.7 µM.

As for `CS[C@@]12CC3=COC=C[C@H](OC(C)=O)[C@H]3N1C[C@]1(SC)CC3=COC=C[C@H](O)[C@H]3N1C2` [compound 7, alternarosin A], the half-inhibitory concentration (IC50) came to 24.3 µM.

Usually IC50 stands for the point on the concentration scale where inhibition reaches its midpoint.
